Drawing on the OPERA property sets (Mansouri et al. 2018), this text covers logP for 13 compounds.

As a reminder, the logP is a log measure of how a compound divides between an organic and an aqueous phase. Higher therefore signals higher lipophilicity.

In turn, `NC(=O)c1ccc(S(N)(=O)=O)cc1` gave a logP of -0.83. In the case of `COc1cccc(S(N)(=O)=O)c1` it was 0.53; in that of `CCCCOc1cccc(S(N)(=O)=O)c1`, 2.06. `N#Cc1cccc(S(N)(=O)=O)c1` gave a logP of 0.24. For `CCCCCCOc1ccc(S(N)(=O)=O)cc1[N+](=O)[O-]` the value was 2.99.

In turn, `CC(=O)Nc1ccc(S(N)(=O)=O)cc1` returned a logP of -0.04. In the case of `CS(=O)(=O)Nc1ccc(S(N)(=O)=O)cc1` it was -0.4; in that of `NS(=O)(=O)c1cccc(I)c1`, 1.58; in that of `CC(=O)c1cccc(S(N)(=O)=O)c1`, 0.21. For `NS(=O)(=O)c1ccc(-c2ccccc2)cc1` the value was 2.24; for `NC(=O)c1cccc(S(N)(=O)=O)c1`, -0.84; for `CCCCOc1ccc(S(N)(=O)=O)cc1`, 2.05.

`NS(=O)(=O)c1cccc(Br)c1` showed a logP of 1.35.
